In the data set the test system is patient with chronic myelogenous leukemia. The experiment in a line: Administration of Tasigna (nilotinib) to the patient with chronic myelogenous leukemia. The class given is in vivo, human. The note with it: CML patient. The protocol: To a patient with chronic myelogenous leukemia, Tasigna (registered trademark) (nilotinib) was administered from Jan. 9, 2014.
The initially administered Tasigna (registered trademark) (nilotinib) had been developed as a therapeutic agent for the transitional stage of chronic myelogenous leukemia from the chronic stage to the acute stage.

SMILES strings stand for the structures.

With `Cc1cn(-c2cc(NC(=O)c3ccc(C)c(Nc4nccc(-c5cccnc5)n4)c3)cc(C(F)(F)F)c2)cn1` [Tasigna, nilotinib], the therapeutic effect result (considered at the acute stage) is on record as “no therapeutic effect”. Besides, under “administration stopped after 5 days”, the adverse effects entry is reported as “strong adverse effects were observed”.

The record behind these values is patent publication US11185517B2, “Pharmaceutical composition for treatment or remission of chronic myelogenous leukemia” (Delta-Fly Pharma, Inc., priority 2016, dated 2021).
